Laboratory results taken from ChEMBL document CHEMBL1134756, “Synthesis and evaluation of a difluoromethylene analogue of sphingomyelin as an inhibitor of sphingomyelinase” (Bioorg Med Chem Lett, 2001).

Key:
[1] = system: Sphingomyelin phosphodiesterase 1 (acid sphingomyelinase) (Bos taurus); experiment: Inhibitory potency of compound against acidic (A-) SMase activity in bovine brain lysosomes microsomes(Ms) at concentration of 400 uM; conditions: Microsome
[2] = Inhibitory potency of compound against neutral (N-) SMase activity in bovine liver microsomes(Ms) at concentration of 400 uM; conditions: Microsome
[3] = organism: Bos taurus; experiment: Inhibitory potency of compound against ceramide synthase activity in bovine liver microsomes(Ms) at concentration of 400 uM; conditions: Microsome
[4] = Inhibitory potency of compound against neutral (N-) SMase activity in bovine brain microsomes(Ms) at concentration of 400 uM; conditions: Microsome
[5] = Inhibitory potency of compound against neutral (N-) SMase activity in Bacillus cereus at concentration of 400 uM
[6] = organism: Homo sapiens; experiment: Inhibitory concentration against […] induced IL1-beta production in human peripheral monocytes; format: functional

Compound: CCCCCCCCCCCCCCCCCC(=O)N[C@H](C(O)c1ccccc1)C(O)C(F)(F)P(=O)(O)O (stereo partly specified)
- inhibition [1]: 80%
- inhibition [2]: 15%
- inhibition [3]: 0%
- inhibition [4]: 50%
- inhibition [5]: 0%

Compound: CC[C@@H](C)/C=C(\C)C[C@@H](C)C[C@@H](C)/C=C/C=C/C=C/C(=O)N[C@H](CO)C[C@@]1(O)C(=O)C=C[C@@H]2O[C@@H]21 [SCYPHOSTATIN]
- IC50 [6]: 100 nM
